Literature values in patent publication US20190374552A1, “MULTIFUNCTIONAL FORMULATIONS AND METHODS TO CONTROL DERMATITIS AND PRURITUS” (priority 2016, published 2019).
Entries after “also recorded” stand apart in the source; their conditions may differ.

Legend:
scratching behavior ACD = settings: mice exposed to haptens oxazolone and urushiol
TRPV1 [1] = biological target: T1, TRPV1 (Homo sapiens, UniProt Q8NER1)
Target sequence in this assay (Q8NER1 whole entry, species assumed): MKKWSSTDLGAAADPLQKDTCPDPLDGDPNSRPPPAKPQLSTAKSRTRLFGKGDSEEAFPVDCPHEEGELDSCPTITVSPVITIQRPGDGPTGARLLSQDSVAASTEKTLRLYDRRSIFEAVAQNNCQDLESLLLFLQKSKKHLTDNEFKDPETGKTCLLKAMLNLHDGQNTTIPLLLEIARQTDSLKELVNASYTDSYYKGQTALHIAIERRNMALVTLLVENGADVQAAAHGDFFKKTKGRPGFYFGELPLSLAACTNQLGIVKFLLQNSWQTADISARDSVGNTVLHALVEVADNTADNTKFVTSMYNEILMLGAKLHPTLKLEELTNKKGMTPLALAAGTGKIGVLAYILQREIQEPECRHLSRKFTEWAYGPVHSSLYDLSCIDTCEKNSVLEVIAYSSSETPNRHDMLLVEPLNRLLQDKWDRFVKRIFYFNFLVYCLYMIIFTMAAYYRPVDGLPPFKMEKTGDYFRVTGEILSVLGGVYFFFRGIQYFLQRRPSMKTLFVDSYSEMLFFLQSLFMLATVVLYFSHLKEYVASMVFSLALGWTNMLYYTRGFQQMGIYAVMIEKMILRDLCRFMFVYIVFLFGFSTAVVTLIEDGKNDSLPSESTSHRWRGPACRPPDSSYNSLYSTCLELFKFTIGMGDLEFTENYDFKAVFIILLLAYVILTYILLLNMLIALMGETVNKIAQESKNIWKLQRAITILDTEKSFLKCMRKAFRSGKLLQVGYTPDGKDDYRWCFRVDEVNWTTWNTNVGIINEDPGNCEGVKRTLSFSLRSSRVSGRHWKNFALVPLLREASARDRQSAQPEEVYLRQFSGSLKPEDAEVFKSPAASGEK

TRPA1 [2] = biological target: T2, TRPA1 (Homo sapiens, UniProt O75762)
Target sequence in this assay (O75762 whole entry, species assumed): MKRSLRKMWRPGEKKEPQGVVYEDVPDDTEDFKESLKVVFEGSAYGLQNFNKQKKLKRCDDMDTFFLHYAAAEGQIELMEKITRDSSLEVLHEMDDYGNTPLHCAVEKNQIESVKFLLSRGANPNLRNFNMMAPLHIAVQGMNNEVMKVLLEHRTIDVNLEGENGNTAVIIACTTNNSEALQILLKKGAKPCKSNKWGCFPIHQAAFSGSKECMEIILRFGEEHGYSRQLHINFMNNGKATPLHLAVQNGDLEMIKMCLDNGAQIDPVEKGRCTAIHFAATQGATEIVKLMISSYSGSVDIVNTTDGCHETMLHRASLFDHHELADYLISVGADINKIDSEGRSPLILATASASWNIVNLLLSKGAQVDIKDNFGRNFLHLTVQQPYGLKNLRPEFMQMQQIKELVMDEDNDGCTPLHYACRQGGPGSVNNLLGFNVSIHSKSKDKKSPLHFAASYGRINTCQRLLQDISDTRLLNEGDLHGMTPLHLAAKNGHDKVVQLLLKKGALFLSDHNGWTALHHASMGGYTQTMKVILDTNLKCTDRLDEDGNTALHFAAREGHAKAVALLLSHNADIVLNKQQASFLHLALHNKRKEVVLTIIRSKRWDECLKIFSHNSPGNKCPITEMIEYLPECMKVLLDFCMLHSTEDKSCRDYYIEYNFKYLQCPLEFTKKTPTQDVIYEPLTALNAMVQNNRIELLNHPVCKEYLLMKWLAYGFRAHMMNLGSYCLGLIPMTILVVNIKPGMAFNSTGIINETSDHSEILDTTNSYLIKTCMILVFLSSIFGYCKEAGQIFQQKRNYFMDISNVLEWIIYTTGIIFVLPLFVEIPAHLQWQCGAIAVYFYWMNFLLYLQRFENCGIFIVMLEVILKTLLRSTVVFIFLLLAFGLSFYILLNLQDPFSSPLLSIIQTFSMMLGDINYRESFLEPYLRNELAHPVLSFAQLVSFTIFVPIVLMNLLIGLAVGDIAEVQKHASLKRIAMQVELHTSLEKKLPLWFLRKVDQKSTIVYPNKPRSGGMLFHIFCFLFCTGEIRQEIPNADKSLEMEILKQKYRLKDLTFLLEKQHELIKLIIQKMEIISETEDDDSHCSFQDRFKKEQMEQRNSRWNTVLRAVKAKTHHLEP

TRPM8 = TRPM8 (Homo sapiens, UniProt Q7Z2W7)
TRPA1 [3] = biological target: T2, TRPA1; remark: listed apart in the source
Target sequence in this assay (O75762 whole entry, species assumed): as above

TRPV1 [4] = biological target: T1, TRPV1; remark: listed apart in the source
Target sequence in this assay (Q8NER1 whole entry, species assumed): as the sequence (Q8NER1 whole entry, species assumed) above

TRPV1 [5] = test system: TRPV1
pain and itch responses = settings: mice
TRPA1 [6] = biological target: T2, TRPA1; settings: for inhibition of hTRPA1 activation by menthol and allyl isothiocyanate: compound at 1 mM, menthol 1 mM, allyl isothiocyanate 10 uM
Target sequence in this assay (O75762 whole entry): as the sequence (O75762 whole entry, species assumed) above

TRPA1 [7] = biological target: T2, TRPA1; remark: listed apart in the source
Target sequence in this assay (O75762 whole entry): as the sequence (O75762 whole entry, species assumed) above

leukocyte migration = settings: induced by injection of carrageenan
TRPV1 [8] = biological target: TRPV1 (Rattus norvegicus, UniProt O35433); settings: compared with docosahexaenoic acid
human TRPM8 (hTRPM8) = human TRPM8 (hTRPM8) (Homo sapiens, UniProt Q7Z2W7)
TRPV1 [9] = biological target: T1, TRPV1; remark: listed apart in the source
Target sequence in this assay (Q8NER1 whole entry): as the sequence (Q8NER1 whole entry, species assumed) above

hTRPV2 = biological target: T3, hTRPV2 (Homo sapiens, UniProt Q9Y5S1)
T3 sequence (Q9Y5S1 1-764): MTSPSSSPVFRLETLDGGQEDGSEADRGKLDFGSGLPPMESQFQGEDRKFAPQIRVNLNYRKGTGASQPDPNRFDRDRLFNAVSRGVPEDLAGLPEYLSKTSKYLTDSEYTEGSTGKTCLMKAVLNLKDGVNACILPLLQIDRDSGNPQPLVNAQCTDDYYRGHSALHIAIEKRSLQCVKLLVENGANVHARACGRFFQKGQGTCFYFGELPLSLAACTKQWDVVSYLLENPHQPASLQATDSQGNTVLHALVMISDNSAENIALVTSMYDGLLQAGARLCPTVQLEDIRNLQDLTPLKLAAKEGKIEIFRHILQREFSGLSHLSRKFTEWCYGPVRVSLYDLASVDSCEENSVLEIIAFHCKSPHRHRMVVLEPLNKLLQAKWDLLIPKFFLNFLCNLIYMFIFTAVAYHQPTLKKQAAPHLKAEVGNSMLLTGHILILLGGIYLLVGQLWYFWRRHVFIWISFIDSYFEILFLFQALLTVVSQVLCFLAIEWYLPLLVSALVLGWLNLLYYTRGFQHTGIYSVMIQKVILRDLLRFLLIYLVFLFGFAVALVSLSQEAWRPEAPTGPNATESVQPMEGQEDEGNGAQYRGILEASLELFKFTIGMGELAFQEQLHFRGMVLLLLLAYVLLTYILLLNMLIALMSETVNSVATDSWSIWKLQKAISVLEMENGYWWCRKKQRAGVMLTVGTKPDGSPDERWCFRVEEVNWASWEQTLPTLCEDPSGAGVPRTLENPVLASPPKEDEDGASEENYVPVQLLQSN

histaminergic itch = settings: topical application, human trials

human TRPM8 (hTRPM8), sequence (Q7Z2W7 whole entry): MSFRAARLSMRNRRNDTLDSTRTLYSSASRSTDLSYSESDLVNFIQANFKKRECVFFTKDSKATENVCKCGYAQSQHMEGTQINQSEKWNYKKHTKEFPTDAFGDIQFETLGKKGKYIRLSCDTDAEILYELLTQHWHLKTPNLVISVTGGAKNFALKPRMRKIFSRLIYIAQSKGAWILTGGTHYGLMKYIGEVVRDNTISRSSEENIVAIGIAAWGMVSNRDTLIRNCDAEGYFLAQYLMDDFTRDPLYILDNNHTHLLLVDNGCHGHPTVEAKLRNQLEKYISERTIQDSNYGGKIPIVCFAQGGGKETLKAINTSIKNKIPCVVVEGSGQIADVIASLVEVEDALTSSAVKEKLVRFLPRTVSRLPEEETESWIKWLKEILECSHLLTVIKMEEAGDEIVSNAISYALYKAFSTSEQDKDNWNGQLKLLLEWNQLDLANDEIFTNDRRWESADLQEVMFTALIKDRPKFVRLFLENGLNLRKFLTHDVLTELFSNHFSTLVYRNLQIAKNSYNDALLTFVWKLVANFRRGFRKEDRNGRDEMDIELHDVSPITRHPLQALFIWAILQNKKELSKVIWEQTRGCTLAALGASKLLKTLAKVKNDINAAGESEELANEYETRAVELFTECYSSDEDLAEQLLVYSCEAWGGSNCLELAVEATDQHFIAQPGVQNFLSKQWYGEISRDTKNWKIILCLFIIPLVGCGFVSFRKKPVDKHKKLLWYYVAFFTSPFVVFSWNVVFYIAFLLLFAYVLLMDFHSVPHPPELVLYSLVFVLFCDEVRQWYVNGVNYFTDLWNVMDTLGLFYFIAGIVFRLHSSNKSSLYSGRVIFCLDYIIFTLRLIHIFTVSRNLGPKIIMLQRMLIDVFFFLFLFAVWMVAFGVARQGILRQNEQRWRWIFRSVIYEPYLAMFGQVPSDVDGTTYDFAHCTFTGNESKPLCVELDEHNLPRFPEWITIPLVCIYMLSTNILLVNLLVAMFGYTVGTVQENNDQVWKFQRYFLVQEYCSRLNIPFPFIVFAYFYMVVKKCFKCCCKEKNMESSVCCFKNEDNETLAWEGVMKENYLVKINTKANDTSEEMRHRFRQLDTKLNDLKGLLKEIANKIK
TRPM8, sequence (Q7Z2W7 whole entry, species assumed): as the sequence (Q7Z2W7 whole entry) above
TRPV1 (Rattus norvegicus, UniProt O35433), sequence (O35433 whole entry): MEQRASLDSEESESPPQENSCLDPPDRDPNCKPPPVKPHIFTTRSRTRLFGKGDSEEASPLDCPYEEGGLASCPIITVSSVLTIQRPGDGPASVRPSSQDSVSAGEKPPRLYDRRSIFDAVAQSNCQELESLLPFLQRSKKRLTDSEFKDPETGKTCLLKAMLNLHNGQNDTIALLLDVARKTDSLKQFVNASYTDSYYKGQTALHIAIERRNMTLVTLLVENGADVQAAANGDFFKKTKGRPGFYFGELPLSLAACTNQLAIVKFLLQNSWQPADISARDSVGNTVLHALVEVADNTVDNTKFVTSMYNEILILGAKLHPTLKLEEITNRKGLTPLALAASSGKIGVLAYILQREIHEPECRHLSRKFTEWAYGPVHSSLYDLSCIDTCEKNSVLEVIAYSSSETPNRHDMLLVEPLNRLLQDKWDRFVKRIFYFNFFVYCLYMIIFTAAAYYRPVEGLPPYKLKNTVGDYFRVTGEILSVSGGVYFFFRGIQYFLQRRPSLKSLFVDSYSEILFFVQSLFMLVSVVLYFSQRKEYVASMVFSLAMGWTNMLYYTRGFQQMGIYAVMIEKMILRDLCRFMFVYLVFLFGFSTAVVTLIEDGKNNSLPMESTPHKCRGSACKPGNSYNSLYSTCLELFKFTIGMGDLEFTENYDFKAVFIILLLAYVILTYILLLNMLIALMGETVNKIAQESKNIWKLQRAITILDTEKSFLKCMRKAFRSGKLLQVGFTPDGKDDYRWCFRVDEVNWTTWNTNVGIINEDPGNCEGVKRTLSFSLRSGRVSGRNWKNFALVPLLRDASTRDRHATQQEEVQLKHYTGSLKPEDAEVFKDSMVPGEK

CC(C)c1ccc(NC(=O)Cn2cnc3c2c(=O)n(C)c(=O)n3C)cc1 [HC-030031]
scratching behavior (scratching behavior ACD): inhibition of scratching

Hyaluronan [HA]
TRPV1 channel activity (TRPV1 [1]): inhibits
TRPA1 channel function (TRPA1 [2]): not affected
TRPM8 channel function (TRPM8): not affected

O=C(CCCCC1CCSS1)NCCC(=O)NC(Cc1cnc[nH]1)C(=O)O (stereo not shown) [ADM 09]
block of TRPA1 agonist AITC (TRPA1 [3]): blocked
block of TRPV1 agonist capsaicin (TRPV1 [4]): blocked

CCCCCCCC/C=C\CCCCCCCC(=O)O [oleic acid]
TRPV1 activity (TRPV1 [5]): inhibited
pain and itch responses (pain and itch responses): inhibited

CC12CCC(C1)C(C)(C)C2O (stereo not shown) [fenchyl alcohol]
inhibition of hTRPA1 activation by menthol and allyl isothiocyanate (TRPA1 [6]): completely inhibited
activation of hTRPA1 (TRPA1 [7]): did not activate

CC12CCC(CC1=O)C2(C)C (stereo not shown) [camphor]
activation of hTRPA1 (TRPA1 [7]): did not activate

CC1(C)[C@@H]2CC[C@@]1(C)[C@](C)(O)C2 [2-methylosoborneol]
IC50 (TRPA1 [6]; TRPA1 activation by 20 uM AITC, read-out: IC-50 concentration, inactivation of TRPA1 activation): 120 µM
inhibition of hTRPA1 activation by menthol and allyl isothiocyanate (TRPA1 [6]): completely inhibited
activation of hTRPA1 (TRPA1 [7]): did not activate

CC1(C)C2CCC1(C)C(O)C2 (stereo not shown) [borneol]
inhibition of hTRPA1 activation by menthol and allyl isothiocyanate (TRPA1 [6]): completely inhibited
activation of hTRPA1 (TRPA1 [7]): did not activate
leukocyte migration (leukocyte migration): reduce
inhibition of TNF-a and IL-6 (TNF-a and IL-6): inhibits

CC/C=C\C/C=C\C/C=C\CCCCCCCC(=O)O [a-linolenic acid]
TRPV1 inhibition (TRPV1 [8]): markedly more effective inhibitors

CC12CCC(CC1)C(C)(C)O2 [1,8-cineole]
activation of hTRPA1 (TRPA1 [7]): did not activate
activation of hTRPM8 (human TRPM8 (hTRPM8)): activates
activation of hTRPV1 (TRPV1 [9]): did not activate
activation of hTRPV2 (hTRPV2): did not activate
release of IL-I β, IL-4, IL-5 and TNF-a (stimulated lymphocytes): decreased

O=C1CC2CC[C@H]1C2 [norcamphor]
activation of hTRPA1 (TRPA1 [7]): did not activate

CC1CCC(C(C)C)C(O)C1 (stereo not shown) [Example 1-menthol, 1-menthol]
activation of hTRPA1 (TRPA1 [7]): activated
activation of hTRPM8 (human TRPM8 (hTRPM8)): activation
effect on histaminergic / experimentally induced itch (histaminergic itch): significant inhibitory effects; also recorded: significant and pronounced anti-pruritic effect; also recorded: relieved
